Here are results for 22 compounds from patent publication US9475815B2, “Substituted benzothienyl-pyrrolotriazines and uses thereof” (Bayer Intellectual Property GmbH, priority 2012, dated 2016).

The target in assay [1] is human mTOR (Homo sapiens (Human), UniProt P42345). Briefly: mTOR kinase assay (TR-FRET, for comparative purposes). Type of assay: biochemical. To be noted: for inhibition at 1 µM: read-out: mTOR % inhibition @ 1 μM, 1 μM test compound, 40 μM ATP, mean values. For orientation: In TR-FRET formats the signal depends on donor and acceptor labels being close together.
Sequence of human mTOR (P42345 1360-2549): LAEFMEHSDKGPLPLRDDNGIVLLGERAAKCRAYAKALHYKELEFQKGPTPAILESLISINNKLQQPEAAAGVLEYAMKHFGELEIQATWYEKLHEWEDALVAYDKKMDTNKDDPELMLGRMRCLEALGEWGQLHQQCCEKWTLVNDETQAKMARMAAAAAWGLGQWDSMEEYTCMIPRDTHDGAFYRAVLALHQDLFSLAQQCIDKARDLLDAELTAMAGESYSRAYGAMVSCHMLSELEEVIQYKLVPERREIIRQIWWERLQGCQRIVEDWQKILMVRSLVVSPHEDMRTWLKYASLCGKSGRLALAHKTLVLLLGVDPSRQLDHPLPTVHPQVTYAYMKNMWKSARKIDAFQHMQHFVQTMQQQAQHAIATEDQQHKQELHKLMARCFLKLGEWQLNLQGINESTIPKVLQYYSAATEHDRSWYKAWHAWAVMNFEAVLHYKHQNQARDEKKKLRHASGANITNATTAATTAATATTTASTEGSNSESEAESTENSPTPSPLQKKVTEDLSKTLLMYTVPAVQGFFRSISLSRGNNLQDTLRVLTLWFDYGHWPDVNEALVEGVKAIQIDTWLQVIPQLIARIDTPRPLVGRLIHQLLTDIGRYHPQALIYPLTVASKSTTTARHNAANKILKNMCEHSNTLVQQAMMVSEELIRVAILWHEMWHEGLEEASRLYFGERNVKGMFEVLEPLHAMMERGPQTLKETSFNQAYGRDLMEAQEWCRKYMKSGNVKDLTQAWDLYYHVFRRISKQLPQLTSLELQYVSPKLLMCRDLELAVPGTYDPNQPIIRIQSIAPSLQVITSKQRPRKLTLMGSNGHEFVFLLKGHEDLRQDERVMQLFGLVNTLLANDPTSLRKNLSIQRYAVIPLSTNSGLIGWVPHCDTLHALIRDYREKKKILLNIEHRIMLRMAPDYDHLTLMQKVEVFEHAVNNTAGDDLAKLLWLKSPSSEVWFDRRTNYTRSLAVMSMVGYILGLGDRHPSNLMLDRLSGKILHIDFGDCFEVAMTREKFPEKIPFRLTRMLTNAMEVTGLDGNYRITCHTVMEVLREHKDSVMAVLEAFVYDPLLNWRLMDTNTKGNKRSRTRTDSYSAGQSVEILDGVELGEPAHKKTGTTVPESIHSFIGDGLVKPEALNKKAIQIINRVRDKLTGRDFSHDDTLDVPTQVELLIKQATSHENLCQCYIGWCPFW
In assay [2] the test system is Human umbilical vein endothelial cells (HUVEC). Briefly: Inhibition of growth factor-mediated cell proliferation (hFGF-2). Type of assay: cell-based. As to conditions: 72 h exposure, hFGF-2 stimulated, from averaged pIC50 values. On the procedure: Human umbilical vein endothelial cells (HUVEC) were obtained from Cellsystems (FC-0003) and grown in Vasculife VEGF complete medium (Cellsystems, LL-1020) containing 2% fetal bovine serum (FBS) at 37° C. and 5% CO2. The cells were used for proliferation assays up to passage 7.
The HUVEC cells were harvested using accutase (PAA, L11-007) and seeded in columns 2 to 12 of 96-well plates (Falcon MICROTEST tissue culture plate 96-well flat bottom, BD 353075, or μCLEAR-PLATE, black, 96-well, Greiner Bio-One, No. 655090) at a cell density of 2500 cells/well in 100 μl Vasculife VEGF complete medium with column 1 remaining empty as blank. Cells were allowed to incubate at 37° C. and 5% CO2 for at least 6 h. Then, the cells were washed once with PBS and starved overnight in Vasculife basal medium (Cellsystems, LM-0002) containing heparin, ascorbate and L-glutamine (components of the Vasculife Life Factors Kit, Cellsystems, LL-1020) as well as 0.2% FBS.
After about 18 h, the starving medium was discarded, and the cells were exposed for 72 h to 9 consecutive log or half-log concentrations of test compound in the range of 10 pM to 30 μM and to 5, 10 or 20 ng/ml hFGF-2 (recombinant human FGF basic, R&D Systems, 233-FB) in 100 μl starving medium. 10 mM stock solutions of test compounds in DMSO were diluted to 200× final concentration in DMSO resulting in a final DMSO concentration of 0.5% in all wells. Controls consisted of cells grown in starving medium only and of cells grown in hFGF-2 containing starving medium with 0.5% DMSO. To determine cell proliferation, 5 μl Alamar Blue solution (Biosource, DAL1100) was added to each well (1:20 dilution), and the cells were allowed to incubate for further 4 h at 37° C. and 5% CO2 before measuring fluorescence (ex. 535 nm, em. 595 nm) with a Spectrafluor Plus Tecan plate reader (XFLUOR4 version 4.20). In some experiments, an ATP Determination Kit (BIAFFIN GmbH, LBR-T100) was used according to the manufacturer's instructions. In each experiment, samples were assayed in triplicate, and the standard deviations were determined GraphPad Prism 5 software was used to analyze the data and to obtain IC50 values. All test compounds were assayed 2 to 10 times in independent experiments and similar results were obtained.

Assay [3] has as its target human FGFR-1 (Homo sapiens, UniProt P11362). Briefly: FGFR-1 high ATP kinase assay (TR-FRET).
Assay [4] addresses human FGFR-3 (Homo sapiens (Human), UniProt P22607). As to the kind of experiment: FGFR-3 kinase assay (TR-FRET). Type of assay: biochemical. To be noted: 10 μM ATP, 15 min pre-incubation with enzyme.

SMILES strings stand for the structures. Where a name gives a salt, the structure may show the parent alone. Read-outs that look alike come from different tables or passages of the source.

Sequence of human FGFR-3 (P22607 397-806): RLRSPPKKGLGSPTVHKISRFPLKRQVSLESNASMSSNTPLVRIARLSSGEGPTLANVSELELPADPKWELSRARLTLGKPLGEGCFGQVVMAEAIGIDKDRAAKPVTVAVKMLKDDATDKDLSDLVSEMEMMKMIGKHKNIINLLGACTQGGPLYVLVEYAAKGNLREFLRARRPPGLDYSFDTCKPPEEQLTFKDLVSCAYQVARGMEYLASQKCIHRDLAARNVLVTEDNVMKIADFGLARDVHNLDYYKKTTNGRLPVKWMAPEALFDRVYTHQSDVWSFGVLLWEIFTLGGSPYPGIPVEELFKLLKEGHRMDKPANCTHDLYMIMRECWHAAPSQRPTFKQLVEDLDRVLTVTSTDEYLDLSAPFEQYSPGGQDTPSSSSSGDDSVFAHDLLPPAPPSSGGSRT
Sequence of human FGFR-1 (P11362 22-822 limits assumed): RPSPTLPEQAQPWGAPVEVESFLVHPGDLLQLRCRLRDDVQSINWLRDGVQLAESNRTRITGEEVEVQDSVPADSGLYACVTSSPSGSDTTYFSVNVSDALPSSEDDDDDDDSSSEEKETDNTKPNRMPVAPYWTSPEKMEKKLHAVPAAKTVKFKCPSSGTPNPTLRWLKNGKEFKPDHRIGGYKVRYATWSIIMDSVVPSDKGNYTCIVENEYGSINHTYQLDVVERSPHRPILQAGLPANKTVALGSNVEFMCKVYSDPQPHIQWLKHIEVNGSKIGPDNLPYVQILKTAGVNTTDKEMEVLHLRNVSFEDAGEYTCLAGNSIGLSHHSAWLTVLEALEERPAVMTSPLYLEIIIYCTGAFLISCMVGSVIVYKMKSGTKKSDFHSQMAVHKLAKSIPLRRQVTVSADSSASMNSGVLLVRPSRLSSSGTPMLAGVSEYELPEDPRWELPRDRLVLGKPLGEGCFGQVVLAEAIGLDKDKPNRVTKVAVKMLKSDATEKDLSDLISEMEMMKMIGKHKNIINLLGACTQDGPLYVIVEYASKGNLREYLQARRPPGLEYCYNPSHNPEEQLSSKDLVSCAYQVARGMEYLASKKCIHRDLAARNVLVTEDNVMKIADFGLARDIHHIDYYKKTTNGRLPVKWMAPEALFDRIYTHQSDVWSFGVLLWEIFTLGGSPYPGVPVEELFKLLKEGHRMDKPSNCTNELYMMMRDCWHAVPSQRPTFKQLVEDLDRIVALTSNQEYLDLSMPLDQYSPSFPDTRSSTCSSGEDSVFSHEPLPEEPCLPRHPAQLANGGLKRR

Take `COc1cc(C)cc2cc(-c3cc(CN4CCNC(C)(C)C4)n4ncnc(N)c34)sc12` [Example 45]: the inhibition – broadly, the percentage by which the read-out fell short of the control – at 1 µM in assay [1] stood at 25.9%. Further, the IC50 (commonly the point on the concentration scale where inhibition reaches its midpoint) was 217 nM in assay [2] (Homo sapiens, HUVEC, 72 h) and 18.1 nM in assay [3].

As to `COc1cc(C)cc2cc(-c3cc(CN4CCNC(C(N)=O)C4)n4ncnc(N)c34)sc12` (racemic) [Example 7, rac-4-{[4-Amino-5-(7-methoxy-5-methyl-1-benzothiophen-2-yl)pyrrolo[2,1-f][1,2,4]triazin-7-yl]-methyl}piperazine-2-carboxamide trihydrochloride], the inhibition at 1 µM in assay [1] was determined as 43.7%. The half-maximal inhibitory concentration (IC50) in assay [2] (Homo sapiens, HUVEC, 72 h) was 44 nM; in assay [3] it was 7.8 nM.

In the case of `COc1cc(C)cc2cc(-c3cc(CN4CCC(NCC(C)O)C4)n4ncnc(N)c34)sc12` (stereo not drawn) [Example 22], the IC50 amounted to 41.8 nM in assay [4]; 105 nM in assay [2] (Homo sapiens, HUVEC, 72 h); 9.3 nM in assay [3]. The inhibition at 1 µM in assay [1] was 14%.

With `CCN[C@H]1CCN(Cc2cc(-c3cc4cc(C)cc(OC)c4s3)c3c(N)ncnn23)C1` [Example 16], the half-maximal inhibitory concentration (IC50) is 15.5 nM in assay [4]; 80 nM in assay [2] (Homo sapiens, HUVEC, 72 h); 15.6 nM in assay [3]. Moreover, the inhibition at 1 µM in assay [1] came out at 26.7%.

In the case of `COc1cc(C)cc2cc(-c3cc(CN4CC[C@](C)(N)C4)n4ncnc(N)c34)sc12` [Example 5, 7-{[(3S)-3-Amino-3-methylpyrrolidin-1-yl]methyl}-5-(7-methoxy-5-methyl-1-benzothiophen-2-yl)pyrrolo[2,1-f][1,2,4]triazin-4-amine trihydrochloride], the IC50 was determined as 7.4 nM in assay [4]; 48 nM in assay [2] (Homo sapiens, HUVEC, 72 h); 1.1 nM in assay [3]. Moreover, the inhibition at 1 µM in assay [1] stood at 18.8%.

Regarding `COc1cc(C)cc2cc(-c3cc(CN4CC[C@H](N)C4)n4ncnc(N)c34)sc12` [Example 9, 7-{[(3S)-3-Aminopyrrolidin-1-yl]methyl}-5-(7-methoxy-5-methyl-1-benzothiophen-2-yl)pyrrolo[2,1-f][1,2,4]triazin-4-amine], the IC50 was 7.4 nM in assay [4]; 145 nM in assay [2] (Homo sapiens, HUVEC, 72 h); 4.7 nM in assay [3]. In assay [1], the inhibition at 1 µM turned out to be 24.2%.

As for `COc1cc(C)cc2cc(-c3cc(CNC(=O)CN)n4ncnc(N)c34)sc12` [Example 106, N-{[4-Amino-5-(7-methoxy-5-methyl-1-benzothiophen-2-yl)pyrrolo[2,1-f][1,2,4]triazin-7-yl]-methyl}glycinamide dihydrochloride], the IC50 in assay [4] amounted to 62.6 nM; in assay [2] (Homo sapiens, HUVEC, 72 h), 20 nM; in assay [3], 25.4 nM. Further, the inhibition at 1 µM in assay [1] came to 5.6%.

For the compound `COc1cc(C)cc2cc(-c3cc(CN4CCNCC4)n4ncnc(N)c34)sc12` [Example 2, 5-(7-Methoxy-5-methyl-1-benzothiophen-2-yl)-7-(piperazin-1-ylmethyl)pyrrolo[2,1-f][1,2,4]-triazin-4-amine], in assay [1] (1 μM test compound, 40 μM ATP, mean values), the “mTOR % inhibition @ 1 μM” value is given as 22.8%. Also, the IC50 in assay [2] stood at 127 nM; in assay [3] (read-out: FGFR-1 (high ATP) IC50, 2 mM ATP, 15 min pre-incubation with enzyme), 20.1 nM.

With `COc1cc(C)cc2cc(-c3cc(CNCC(N)=O)n4ncnc(N)c34)sc12` [Example 18], the IC50 amounted to 7.8 nM in assay [4]; 155 nM in assay [2] (Homo sapiens, HUVEC, 72 h); 26.4 nM in assay [3]. For the same compound, in assay [1], the inhibition at 1 µM is 39.1%.

Turning to `CCN(CC)C1CCN(Cc2cc(-c3cc4cc(C)cc(OC)c4s3)c3c(N)ncnn23)C1` (stereo not drawn) [Example 19], the IC50 in assay [4] was determined as 27.2 nM; in assay [2] (Homo sapiens, HUVEC, 72 h) it was 277 nM; in assay [3] it was 14.7 nM. The inhibition at 1 µM in assay [1] worked out at 25.9%.

With `COc1cc(C)cc2cc(-c3cc(CN4CCC(N(C)C)C4)n4ncnc(N)c34)sc12` (stereo not drawn) [Example 42], in assay [1], the inhibition at 1 µM is 36.3%. Besides, the IC50 stood at 130 nM in assay [2] (Homo sapiens, HUVEC, 72 h) and 13.4 nM in assay [3].

For the compound `COc1cc(C)cc2cc(-c3cc(CN4CCNC(=O)CC4)n4ncnc(N)c34)sc12` [Example 20], the IC50 in assay [4] turned out to be 24.8 nM; in assay [2] (Homo sapiens, HUVEC, 72 h) it was 110 nM; in assay [3], 54.7 nM. Further, in assay [1], the inhibition at 1 µM was determined as 35.6%.

In the case of `COc1cc(C)cc2cc(-c3cc(CN4CCNCC4)n4ncnc(N)c34)sc12` [Example 1, 5-(7-Methoxy-5-methyl-1-benzothiophen-2-yl)-7-(piperazin-1-ylmethyl)pyrrolo[2,1-f][1,2,4]-triazin-4-amine trihydrochloride hydrate], the inhibition at 1 µM in assay [1] was 17.6%. Further, the IC50 in assay [2] (trihydrochloride hydrate) came to 36 nM; in assay [3], 9.9 nM.

As to `COc1cc(C)cc2cc(-c3cc(CN4CC[C@H](N(C)C)C4)n4ncnc(N)c34)sc12` [Example 15], the IC50 in assay [4] was 23 nM; in assay [2] (Homo sapiens, HUVEC, 72 h), 180 nM; in assay [3] it was 11.1 nM. In addition, the inhibition at 1 µM in assay [1] came to 25.2%.

Turning to `COc1cc(C)cc2cc(-c3cc(CN4CCNC(=O)C4)n4ncnc(N)c34)sc12` [Example 8, 4-{[4-Amino-5-(7-methoxy-5-methyl-1-benzothiophen-2-yl)pyrrolo[2,1-f][1,2,4]triazin-7-yl]-methyl}piperazin-2-one dihydrochloride], in assay [1], the inhibition at 1 µM turned out to be 45.9%. Further, the IC50 stood at 370 nM in assay [2] (Homo sapiens, HUVEC, 72 h) and 29 nM in assay [3].

As for `COc1cc(C)cc2cc(-c3cc(CN4CCCC(N(C)C)C4)n4ncnc(N)c34)sc12` (stereo not drawn) [Example 86], the concentration for half-maximal inhibition (IC50) is 9.6 nM in assay [4]; 37 nM in assay [2] (Homo sapiens, HUVEC, 72 h); 4.6 nM in assay [3]. The inhibition at 1 µM in assay [1] was found to be 33%.

Consider `COc1cc(C)cc2cc(-c3cc(C(=O)N4CCC[C@](C)(N)C4)n4ncnc(N)c34)sc12` [Example 105], for which the IC50 in assay [4] was 25.7 nM; in assay [2] (Homo sapiens, HUVEC, 72 h), 137 nM; in assay [3], 20.4 nM. Besides, the inhibition at 1 µM in assay [1] was 17.1%.

Consider `COc1cc(C)cc2cc(-c3cc(CN4CCN(C(=O)CO)CC4)n4ncnc(N)c34)sc12` [Example 96, 1-(4-{[4-Amino-5-(7-methoxy-5-methyl-1-benzothiophen-2-yl)pyrrolo[2,1-f][1,2,4]triazin-7-yl]-methyl}piperazin-1-yl)-2-hydroxyethanone], for which the IC50 in assay [4] is 11.9 nM; in assay [2] (Homo sapiens, HUVEC, 72 h) it was 72 nM; in assay [3], 12.6 nM. The inhibition at 1 µM in assay [1] is 37.9%.

As for `CNC1CCN(Cc2cc(-c3cc4cc(C)cc(OC)c4s3)c3c(N)ncnn23)C1` (stereo not drawn) [Example 41], the inhibition at 1 µM in assay [1] was 25.9%. For the same compound, the IC50 amounted to 49 nM in assay [2] (Homo sapiens, HUVEC, 72 h) and 7.3 nM in assay [3].

Turning to `COc1cc(C)cc2cc(-c3cc(C(=O)NC4CCNC4=O)n4ncnc(N)c34)sc12` (racemic) [Example 98, rac-4-Amino-5-(7-methoxy-5-methyl-1-benzothiophen-2-yl)-N-(2-oxopyrrolidin-3-yl)pyrrolo-[2,1-f][1,2,4]triazine-7-carboxamide hydrochloride], the half-inhibitory concentration (IC50) in assay [4] is 13.1 nM; in assay [2] (Homo sapiens, HUVEC, 72 h), 48 nM; in assay [3] it was 9 nM. In addition, the inhibition at 1 µM in assay [1] stood at 24.6%.

For the compound `COc1cc(C)cc2cc(-c3cc(CN4CCC[C@H](N)C4)n4ncnc(N)c34)sc12` [Example 56], the 50% inhibitory concentration (IC50) in assay [4] was 22.6 nM; in assay [2] (Homo sapiens, HUVEC, 72 h), 169 nM; in assay [3], 17.5 nM. Besides, in assay [1], the inhibition at 1 µM turned out to be 32.1%.

With `COc1cc(C)cc2cc(-c3cc(C(=O)N4CCNCC4)n4ncnc(N)c34)sc12` [Example 99, [4-Amino-5-(7-methoxy-5-methyl-1-benzothiophen-2-yl)pyrrolo[2,1-f][1,2,4]triazin-7-yl]-(piperazin-1-yl)methanone dihydrochloride], the half-maximal inhibitory concentration (IC50) was found to be 66.6 nM in assay [4]; 270 nM in assay [2] (Homo sapiens, HUVEC, 72 h); 90.4 nM in assay [3]. The inhibition at 1 µM in assay [1] was found to be 9.9%.
